From US11685732B2, “MYST family histone acetyltransferase inhibitors” (Epizyme, Inc., priority 2017, dated 2023)

Tests used:
Details in all cases: Table 5
KAT-5 = KAT-5 (Homo sapiens (Human), UniProt Q92993); assay: KAT-5 biochemical inhibition assay (SAMDI mass spectrometry)
Description: (§1) KAT-5. Enzyme assay buffer was 50 mM Tris pH 8.0, 0.002% Tween20, 0.005% bovine skin gelatin, and 1 mM dithiothreitol (DTT). For determination of IC50 values, compounds were serially diluted with 2% (v/v) DMSO in the final reaction, pre-incubating each dilution of each compound with 40 μL of assay buffer containing KAT-5 enzyme (9 nM final concentration). 10 μL of assay buffer containing 1 μM peptide substrate and 0.5 μM acetyl coenzyme A (final concentrations) was added. Reactions (50 μL total) were then carried out at 25° C. for 90 minutes. Reactions were terminated by the addition of 0.5% formic acid (final concentration), and a sample of each reaction was analyzed by SAMDI Tech, Inc. (Chicago, Ill.) using self-assembled monolayer desorption/ionization time-of-flight mass spectrometry (Mrksich, M. (2008) Mass spectrometry of self-assembled monolayers: a new tool for molecular surface science. ACS Nano 2, 7-18).

KAT-6A = KAT-6A (Homo sapiens (Human), UniProt Q92794); assay: KAT-6A biochemical inhibition assay (SAMDI mass spectrometry)
Description: as §1, with “KAT-6A. Enzyme” for “KAT-5. Enzyme”, “containing KAT-6A” for “containing KAT-5”, “enzyme (12.5” for “enzyme (9”, “and 1” for “and 0.5”

KAT-7 = KAT-7 (Homo sapiens (Human), UniProt O95251); assay: KAT-7 biochemical inhibition assay (SAMDI mass spectrometry)
Description: as §1, with “KAT-7. Enzyme” for “KAT-5. Enzyme”, “containing KAT-7” for “containing KAT-5”, “enzyme (6” for “enzyme (9”, “and 2” for “and 0.5”, “for 120” for “for 90”

KAT-5, sequence (Q92993 other isoform, or with tags, fused parts or gaps): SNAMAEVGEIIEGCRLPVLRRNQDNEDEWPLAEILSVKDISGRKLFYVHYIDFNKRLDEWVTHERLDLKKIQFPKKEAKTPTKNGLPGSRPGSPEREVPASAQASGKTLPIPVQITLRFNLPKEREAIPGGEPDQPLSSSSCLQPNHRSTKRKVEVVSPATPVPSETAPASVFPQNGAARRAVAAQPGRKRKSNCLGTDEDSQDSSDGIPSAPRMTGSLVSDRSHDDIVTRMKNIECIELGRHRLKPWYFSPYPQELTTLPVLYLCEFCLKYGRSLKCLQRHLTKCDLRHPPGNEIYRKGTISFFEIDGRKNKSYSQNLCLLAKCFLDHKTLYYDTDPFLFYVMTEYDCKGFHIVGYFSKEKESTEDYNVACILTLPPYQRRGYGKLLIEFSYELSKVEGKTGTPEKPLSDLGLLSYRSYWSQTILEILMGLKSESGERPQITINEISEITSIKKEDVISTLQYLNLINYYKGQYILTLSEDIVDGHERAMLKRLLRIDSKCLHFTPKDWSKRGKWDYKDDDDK
KAT-7, sequence (O95251 other isoform, or with tags, fused parts or gaps): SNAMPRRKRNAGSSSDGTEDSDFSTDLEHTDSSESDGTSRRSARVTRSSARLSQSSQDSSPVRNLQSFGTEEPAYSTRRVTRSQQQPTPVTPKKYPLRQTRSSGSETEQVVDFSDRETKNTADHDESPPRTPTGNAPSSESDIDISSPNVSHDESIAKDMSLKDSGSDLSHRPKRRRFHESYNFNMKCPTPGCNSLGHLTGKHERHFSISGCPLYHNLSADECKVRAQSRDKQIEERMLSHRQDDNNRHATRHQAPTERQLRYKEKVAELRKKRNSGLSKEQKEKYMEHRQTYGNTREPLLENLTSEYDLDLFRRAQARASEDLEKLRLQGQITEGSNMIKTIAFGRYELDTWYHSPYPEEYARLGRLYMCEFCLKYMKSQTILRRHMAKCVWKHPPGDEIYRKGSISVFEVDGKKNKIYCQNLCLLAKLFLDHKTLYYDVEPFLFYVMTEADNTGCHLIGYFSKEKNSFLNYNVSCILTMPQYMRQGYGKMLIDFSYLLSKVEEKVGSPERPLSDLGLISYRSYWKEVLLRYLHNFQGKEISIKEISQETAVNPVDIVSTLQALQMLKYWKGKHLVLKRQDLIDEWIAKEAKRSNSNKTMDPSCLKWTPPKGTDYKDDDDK
KAT-6A, sequence (Q92794 other isoform, or with tags, fused parts or gaps): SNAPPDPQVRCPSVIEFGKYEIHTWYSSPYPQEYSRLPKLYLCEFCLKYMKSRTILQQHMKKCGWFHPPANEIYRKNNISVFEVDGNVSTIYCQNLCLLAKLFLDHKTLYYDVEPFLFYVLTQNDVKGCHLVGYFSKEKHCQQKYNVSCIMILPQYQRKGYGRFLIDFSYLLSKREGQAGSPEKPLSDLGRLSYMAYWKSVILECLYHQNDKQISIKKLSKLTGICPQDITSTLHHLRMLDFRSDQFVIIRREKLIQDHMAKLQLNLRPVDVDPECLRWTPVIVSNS

Structure (SMILES) | IC50 (KAT-5) | IC50 (KAT-6A) | IC50 (KAT-7)
Cc1cccc(-c2cc(Cl)c(F)c(C(=O)NNS(=O)(=O)CC3CN(C(=O)OC(C)(C)C)C3)c2)c1 [Compound A-12] | 10 to 50 µM | 10 to 50 µM | ≤ 10 µM
Cc1cccc(-c2cc(Cl)c(F)c(C(=O)NNS(=O)(=O)CC3CNC3)c2)c1 [Compound A-13] | > 100 µM | > 100 µM | 10 to 50 µM
Cc1cccc(-c2cc(Cl)c(F)c(C(=O)NNS(=O)(=O)CC3CN(C(=O)OC(C)(C)C)CCN3C(=O)OC(C)(C)C)c2)c1 (stereo not drawn) [Compound A-14] | > 100 µM | > 100 µM | 10 to 50 µM
Cc1cccc(-c2cc(Cl)c(F)c(C(=O)NNS(=O)(=O)CC3CNCCN3)c2)c1 (stereo not drawn) [Compound A-15] | > 100 µM | > 100 µM | ≤ 10 µM
COc1cccc(S(=O)(=O)NNC(=O)c2cc(-c3ccccc3)cc(Cl)c2F)c1 [Compound A-16] | ≤ 10 µM | ≤ 1 µM | ≤ 1 µM
Cc1cccc(-c2cc(Cl)c(F)c(C(=O)NNS(=O)(=O)CC3CN(C)CCN3C)c2)c1 (stereo not drawn) [Compound A-17] | > 100 µM | 10 to 50 µM | ≤ 10 µM
Cc1cccc(-c2cc(Cl)c(F)c(C(=O)NNS(=O)(=O)C3CCC(NC(=O)OC(C)(C)C)C3)c2)c1 (stereo not drawn) [Compound A-19] | 10 to 50 µM | 50 to 100 µM | ≤ 10 µM
Cc1cccc(-c2cc(Cl)c(F)c(C(=O)NNS(=O)(=O)C3CCC(N)C3)c2)c1 (stereo not drawn) [Compound A-20] | > 100 µM | > 100 µM | 10 to 50 µM
Cc1cccc(-c2cc(Cl)c(F)c(C(=O)NNS(=O)(=O)CC3CCCCNC3)c2)c1 (stereo not drawn) [Compound A-21] | > 100 µM | > 100 µM | ≤ 10 µM
Cc1cccc(-c2cc(Cl)c(F)c(C(=O)NNS(=O)(=O)CC3CCCCN(C(=O)OC(C)(C)C)C3)c2)c1 (stereo not drawn) [Compound A-22] | 10 to 50 µM | 10 to 50 µM | ≤ 1 µM
Cc1cccc(-c2cc(Cl)c(F)c(C(=O)NNS(=O)(=O)C(C)C3CCCN(C(=O)OC(C)(C)C)C3)c2)c1 (stereo not drawn) [Compound A-23] | > 100 µM | > 100 µM | ≤ 1 µM
Cc1cccc(-c2cc(Cl)c(F)c(C(=O)NNS(=O)(=O)CC3CN(C)CCN3)c2)c1 (stereo not drawn) [Compound A-24] | 50 to 100 µM | 10 to 50 µM | ≤ 10 µM
Cc1cccc(-c2cc(Cl)c(F)c(C(=O)NNS(=O)(=O)C(C)C3CCCNC3)c2)c1 (stereo not drawn) [Compound A-25] | > 100 µM | > 100 µM | 10 to 50 µM
CNCCCS(=O)(=O)NNC(=O)c1cc(-c2cccc(C)c2)ccc1F [Compound A-26] | > 100 µM | > 100 µM | > 100 µM
CNCCCS(=O)(=O)NNC(=O)c1cc(-c2cccc(C)c2)cc(Cl)c1F [Compound A-27] | > 100 µM | > 100 µM | > 100 µM
Cc1cc(-c2cccc(F)c2)cc(C(=O)NNS(=O)(=O)c2cccc(O)c2)c1F [Compound A-28] | ≤ 1 µM | ≤ 1 µM | ≤ 1 µM
O=C(NNS(=O)(=O)c1cccc(O)c1)c1cc(-c2ccccc2)cc(F)c1F [Compound A-29] | ≤ 10 µM | ≤ 1 µM | ≤ 1 µM
O=C(NNS(=O)(=O)c1cccc(O)c1)c1cc(-c2ccccc2)cc(Cl)c1F [Compound A-31] | ≤ 1 µM | ≤ 1 µM | ≤ 1 µM
Cc1cccc(-c2cc(Cl)c(F)c(C(=O)NNS(=O)(=O)CC3CNCCN3C)c2)c1 (stereo not drawn) [Compound A-32] | > 100 µM | > 100 µM | 10 to 50 µM
